Test results as given in patent US10828317B2, “Method of treating bacterial infections” (priority 2016, dated 2020).
Read-outs that look alike come from different tables or passages of the source.

What was measured:
S. sonnei APV00908 = assay: MIC and antibiogram; assay type: cell-based; conditions: Shigella sonnei, Table 22A
S. marescens EN0454 = assay: MIC; assay type: cell-based, Serratia marescens; conditions: Serratia, read-out: MIC
E. aerogenes EN0461 = assay: MIC; assay type: cell-based, Enterobacter aerogenes; conditions: Klebsiella aerogenes, read-out: MIC
A. baumannii EN007 = assay: MIC, WT (EN007 = EN0007); assay type: cell-based, Acinetobacter baumannii
E. coli B EN0458 = assay: MIC; assay type: cell-based, Escherichia coli B; conditions: Escherichia coli, read-out: MIC
P. aeruginosa EN0459 = assay: MIC; assay type: cell-based, Pseudomonas aeruginosa; conditions: Pseudomonas aeruginosa, read-out: MIC
E. coli EN0134 = assay: MIC, AmpC (CMY-4); assay type: cell-based; conditions: Escherichia coli, EN0134, combination didanosine+trimethoprim+uridine, Table 20; read-out: MIC
P. aeruginosa EN004 = assay: MIC, WT (EN004 = EN0004); assay type: cell-based, Pseudomonas aeruginosa
S. epidermidis EN0456 = assay: MIC; assay type: cell-based, Staphylococcus epidermidis; conditions: Staphylococcus epidermidis, read-out: MIC
E. coli EN0136 = assay: MIC, ESBL (CTX-M-2); assay type: cell-based; conditions: Escherichia coli, read-out: MIC
[1] = system: A. pittii or A. nosocomialis EN0180; assay: MIC; assay type: cell-based, Acinetobacter pittii or nosocomialis; conditions: read-out: MIC
E. coli EN0137 = assay: MIC, ESBL (CTX-M-15); assay type: cell-based; conditions: Escherichia coli, EN0137, combination didanosine+trimethoprim+uridine, Table 20; read-out: MIC
K. pneumoniae EN0144 = assay: MIC, MBL (VIM-1); assay type: cell-based; conditions: Klebsiella pneumoniae, EN0144, combination didanosine+trimethoprim+uridine, Table 20; read-out: MIC
K. pneumoniae EN0245 = assay: MIC, colistinR; assay type: cell-based; conditions: Klebsiella pneumoniae, EN0245, combination didanosine+trimethoprim+uridine, Table 20; read-out: MIC
Citrobacter sp. EN0465 = assay: MIC; assay type: cell-based; conditions: Citrobacter, read-out: MIC
K. pneumoniae EN0249 = assay: MIC, colistinR; assay type: cell-based; conditions: Klebsiella pneumoniae, EN0249, combination didanosine+trimethoprim+uridine, Table 20; read-out: MIC
[2] = combination AZT+trimethoprim+uridine, Table 17B
[3] = combination FdUrd+trimethoprim+uridine, Table 19
[4] = combination didanosine+trimethoprim+uridine, Table 20

Q: Which MIC (S. sonnei APV00908; APV00908, combination AZT+trimethoprim+uridine) does the source give for `O=c1ccn([C@@H]2O[C@H](CO)[C@@H](O)[C@H]2O)c(=O)[nH]1` [Uridine, uridine] here?
A: The MIC was 3 µg/mL.

Q: What about the MIC (S. sonnei APV00908; APV00908, combination FdUrd+trimethoprim+uridine) of the same compound?
A: The MIC was over 400 µg/mL.

Q: What about the MIC (S. marescens EN0454; EN0454, Combination 1 AZT+trimethoprim+uridine, Table 16) of the same compound?
A: The MIC was over 400 µg/mL.

Q: And the MIC (S. marescens EN0454; EN0454, Combination 2 AZT+trimethoprim+uridine+thymidine, Table 16)?
A: Its MIC is over 400 µg/mL.

Q: What about the MIC (S. marescens EN0454; EN0454, combination didanosine+trimethoprim+uridine, Table 10) of the same compound?
A: The MIC was over 400 µg/mL.

Q: What about the MIC (E. aerogenes EN0461; EN0461, Combination 2 AZT+trimethoprim+uridine+thymidine, Table 16) of the same compound?
A: The MIC was 200 µg/mL.

Q: And the MIC (E. aerogenes EN0461; EN0461, combination AZT+trimethoprim+uridine, Table 6)?
A: Its MIC is 60 µg/mL.

Q: And the MIC (A. baumannii EN007; Acinetobacter baumannii, EN007, Combination 1 AZT+trimethoprim+uridine, Table 16, read-out: MIC)?
A: The MIC was over 400 µg/mL.

Q: And the MIC (A. baumannii EN007; Acinetobacter baumannii, EN007, Combination 2 AZT+trimethoprim+uridine+thymidine, Table 16, read-out: MIC)?
A: Its MIC is over 400 µg/mL.

Q: What about the MIC (A. baumannii EN007; Acinetobacter baumannii, EN007, combination AZT+trimethoprim+uridine, Table 6, read-out: MIC) of the same compound?
A: Its MIC is over 1000 µg/mL.

Q: And the MIC (A. baumannii EN007; Acinetobacter baumannii, EN007, combination FdUrd+trimethoprim+uridine, Table 8, read-out: MIC)?
A: The MIC was over 400 µg/mL.

Q: What about the MIC (A. baumannii EN007; Acinetobacter baumannii, EN007, combination didanosine+trimethoprim+uridine, Table 10, read-out: MIC) of the same compound?
A: The MIC was over 400 µg/mL.

Q: And the MIC (A. baumannii EN007; [2])?
A: The MIC was over 400 µg/mL.

Q: What about the MIC (A. baumannii EN007; [3]) of the same compound?
A: Its MIC is over 400 µg/mL.

Q: What about the MIC (A. baumannii EN007; [4]) of the same compound?
A: The MIC was over 400 µg/mL.

Q: And the MIC (E. coli B EN0458; BEN0458, combination FdUrd+trimethoprim+uridine, Table 8)?
A: Its MIC is 3 µg/mL.

Q: What about the MIC (E. coli B EN0458; BEN0458, combination didanosine+trimethoprim+uridine, Table 10) of the same compound?
A: The MIC was 3 µg/mL.

Q: And the MIC (P. aeruginosa EN0459; EN0459, Combination 1 AZT+trimethoprim+uridine, Table 16)?
A: The MIC was over 400 µg/mL.

Q: What about the MIC (P. aeruginosa EN0459; EN0459, Combination 2 AZT+trimethoprim+uridine+thymidine, Table 16) of the same compound?
A: Its MIC is over 400 µg/mL.

Q: What about the MIC (P. aeruginosa EN0459; EN0459, combination AZT+trimethoprim+uridine, Table 6) of the same compound?
A: Its MIC is over 1000 µg/mL.

Q: What about the MIC (P. aeruginosa EN0459; EN0459, combination FdUrd+trimethoprim+uridine, Table 8) of the same compound?
A: The MIC was over 400 µg/mL.

Q: And the MIC (P. aeruginosa EN0459; EN0459, combination didanosine+trimethoprim+uridine, Table 10)?
A: The MIC was over 400 µg/mL.

Q: What about the MIC (E. coli EN0134) of the same compound?
A: The MIC was over 400 µg/mL.

Q: What about the MIC (P. aeruginosa EN004; Pseudomonas aeruginosa, EN004, Combination 1 AZT+trimethoprim+uridine, Table 16, read-out: MIC) of the same compound?
A: Its MIC is over 400 µg/mL.

Q: And the MIC (P. aeruginosa EN004; Pseudomonas aeruginosa, EN004, Combination 2 AZT+trimethoprim+uridine+thymidine, Table 16, read-out: MIC)?
A: Its MIC is over 400 µg/mL.

Q: And the MIC (P. aeruginosa EN004; Pseudomonas aeruginosa, EN004, combination AZT+trimethoprim+uridine, Table 6, read-out: MIC)?
A: Its MIC is over 1000 µg/mL.

Q: What about the MIC (P. aeruginosa EN004; Pseudomonas aeruginosa, EN004, combination FdUrd+trimethoprim+uridine, Table 8, read-out: MIC) of the same compound?
A: The MIC was over 400 µg/mL.

Q: What about the MIC (P. aeruginosa EN004; Pseudomonas aeruginosa, EN004, combination didanosine+trimethoprim+uridine, Table 10, read-out: MIC) of the same compound?
A: Its MIC is over 400 µg/mL.

Q: And the MIC (P. aeruginosa EN004; [2])?
A: Its MIC is over 400 µg/mL.

Q: And the MIC (P. aeruginosa EN004; [3])?
A: The MIC was over 400 µg/mL.

Q: And the MIC (P. aeruginosa EN004; [4])?
A: Its MIC is over 400 µg/mL.

Q: What about the MIC (S. epidermidis EN0456; EN0456, Combination 1 AZT+trimethoprim+uridine, Table 16) of the same compound?
A: The MIC was 66.4 µg/mL.

Q: What about the MIC (S. epidermidis EN0456; EN0456, Combination 2 AZT+trimethoprim+uridine+thymidine, Table 16) of the same compound?
A: The MIC was 200 µg/mL.

Q: What about the MIC (S. epidermidis EN0456; EN0456, combination AZT+trimethoprim+uridine, Table 6) of the same compound?
A: Its MIC is 16 µg/mL.

Q: What about the MIC (S. epidermidis EN0456; EN0456, combination FdUrd+trimethoprim+uridine, Table 8) of the same compound?
A: The MIC was under 0.8 µg/mL.

Q: What about the MIC (S. epidermidis EN0456; EN0456, combination didanosine+trimethoprim+uridine, Table 10) of the same compound?
A: The MIC was 6 µg/mL.

Q: What about the MIC (E. coli EN0136; EN0136, combination AZT+trimethoprim+uridine, Table 17B) of the same compound?
A: Its MIC is 13 µg/mL.

Q: And the MIC (E. coli EN0136; EN0136, combination didanosine+trimethoprim+uridine, Table 20)?
A: The MIC was over 400 µg/mL.

Q: What about the MIC ([1]; Combination 1 AZT+trimethoprim+uridine, Table 16) of the same compound?
A: The MIC was over 400 µg/mL.

Q: And the MIC ([1]; Combination 2 AZT+trimethoprim+uridine+thymidine, Table 16)?
A: Its MIC is over 400 µg/mL.

Q: And the MIC ([1]; combination AZT+trimethoprim+uridine, Table 6)?
A: Its MIC is over 1000 µg/mL.

Q: And the MIC ([1]; combination FdUrd+trimethoprim+uridine, Table 8)?
A: The MIC was 400 µg/mL.

Q: And the MIC ([1]; combination didanosine+trimethoprim+uridine, Table 10)?
A: Its MIC is over 400 µg/mL.

Q: And the MIC (E. coli EN0137)?
A: Its MIC is over 400 µg/mL.

Q: And the MIC (K. pneumoniae EN0144)?
A: The MIC was over 400 µg/mL.

Q: And the MIC (K. pneumoniae EN0245)?
A: Its MIC is over 400 µg/mL.

Q: What about the MIC (Citrobacter sp. EN0465; SP.EN0465, Combination 1 AZT+trimethoprim+uridine, Table 16) of the same compound?
A: Its MIC is over 400 µg/mL.

Q: What about the MIC (Citrobacter sp. EN0465; SP.EN0465, Combination 2 AZT+trimethoprim+uridine+thymidine, Table 16) of the same compound?
A: The MIC was over 400 µg/mL.

Q: And the MIC (Citrobacter sp. EN0465; SP.EN0465, combination AZT+trimethoprim+uridine, Table 6)?
A: The MIC was over 1000 µg/mL.

Q: And the MIC (Citrobacter sp. EN0465; SP.EN0465, combination FdUrd+trimethoprim+uridine, Table 8)?
A: The MIC was over 400 µg/mL.

Q: And the MIC (Citrobacter sp. EN0465; SP.EN0465, combination didanosine+trimethoprim+uridine, Table 10)?
A: Its MIC is over 400 µg/mL.

Q: What about the MIC (K. pneumoniae EN0249) of the same compound?
A: The MIC was over 400 µg/mL.
